According to patent US20260116865A1, “PHOSPHOR FOR DETECTING FIRE BLIGHT PATHOGEN AND USE THEREOF” (UNIVERSITY-INDUSTRY COOPERATION GROUP OF KYUNG HEE …, priority 2023, published 2026):

Columns and labels:
[1] = Absorption and fluorescence properties of B-1 in aqueous solution; format: physicochemical
Protocol: (§1) To evaluate the absorption and fluorescence properties of the phosphor compound B-1 synthesized in Example 1, the changes in the absorption and fluorescence spectra of B-1 were measured in aqueous solution and in the presence of Erwinia amylovora, the causal pathogen of fire blight in fruit trees, and the results are shown in FIG. 2.
(§2) Specifically, the E. amylovora used in the experiment was cultured overnight at 26° C. in Luria-Bertani (LB) liquid medium. After cultivation, E. amylovora was harvested by centrifugation at 10,000 ref. First, B-1 was added, and its absorption and fluorescence spectra were analyzed in aqueous solution. Then, E. amylovora (4.3×10^8 CFU) was added to the aqueous solution containing B-1, and the changes in the absorption and fluorescence spectra were analyzed. A UV/Vis spectrophotometer (Agilent, USA) was used to analyze the absorbance spectra, and a fluorescence spectrophotometer (SHIMADZU CORP. RF-6000, Japan) was used for fluorescence spectra analysis. For all spectral measurements, a standard quartz cell with a path length of 1 cm (Hellma Analytics, Germany) was used.
(§3) The measurement results are shown in FIG. 2, where the absorption and fluorescence spectra of B-1 (10 μM) in aqueous solution are represented by a dashed line, and those in the presence of E. amylovora are represented by a solid line.

[2] = tested on: Erwinia amylovora; assay: Absorption and fluorescence change of B-1 in the presence of E. amylovora; format: cell-based; details: B-1 10 μM, E. amylovora 4.3×10^8 CFU
Protocol: as §1, §2, §3

[3] = tested on: E. amylovora; assay: Fluorescence response of B-1 according to concentration of E. amylovora; format: cell-based, Erwinia amylovora; details: B-1 10 μM, E. amylovora 2×10^6 to 4×10^8 CFU/mL in DI H2O, excitation 550 nm
Protocol: Specifically, to determine the concentration of E. amylovora obtained as described in Example 2, absorbance at 600 nm was measured (OD600 0.1=1×10^8 cells). E. amylovora was then diluted in DI H2O to concentrations ranging from 2×10^6 to 4×10^8 CFU/mL, and each dilution was reacted with 10 μM of B-1. Fluorescence intensity at 686 nm was recorded after excitation at 550 nm, and plotted on a graph.

[4] = tested on: E. amylovora; assay: Limit of detection of B-1 for E. amylovora; format: cell-based, Erwinia amylovora; details: B-1 5 μM in DI H2O, emission 686 nm, excitation 551 nm, serially diluted E. amylovora
Protocol: E. amylovora was serially diluted and reacted with the phosphor compound B-1 synthesized in Example 1 to evaluate its minimum detection capability, and the results are shown in FIG. 4.
Specifically, quantified E. amylovora, as prepared in Example 3, was reacted with 5 μM of B-1 in DI H2O. Fluorescence intensity was then measured at 686 nm with an excitation wavelength of 551 nm, and the results were plotted on a graph.

[5] = tested on: E. amylovora; assay: Time-dependent detection capability of B-1 for E. amylovora; format: cell-based, Erwinia amylovora; details: B-1 10 μM, E. amylovora 10^8 CFU/mL in DI H2O, 686 nm, excitation 550 nm, monitored up to 40 minutes
Protocol: Specifically, 10 μM of B-1 was reacted with E. amylovora at a concentration of 10^8 CFU/mL, quantified as described in Example 3, in DI H2O. Fluorescence changes were monitored at 686 nm with 550 nm excitation for up to 40 minutes.

[6] = tested on: E. amylovora; assay: Staining ability for E. amylovora, confocal laser scanning microscopy; format: cell-based, Erwinia amylovora; details: B-1 30 μM with DAPI 300 nM in PBS, 1 hour
Protocol: Specifically, E. amylovora obtained as described in Example 2 was stained by reacting with 30 μM of B-1 in phosphate-buffered saline (PBS) for 1 hour. To visualize […] E. amylovora, a counterstain with 300 nM of 4′,6-diamidino-2-phenylindole (DAPI) was applied simultaneously. The stained E. amylovora was then washed three times with PBS to remove residual B-1 and DAPI, followed by heat fixation and mounting on a slide glass for imaging using a confocal laser scanning microscope (Carl Zeiss, Germany). During confocal microscopy, differential interference contrast (DIC) images were also captured. The wavelengths used for imaging were as follows: [DAPI] excitation wavelength: 405 nm, emission wavelength: 410-530 nm, [B-1] excitation wavelength: 561 nm, emission wavelength: 600-700 nm.

[7] = tested on: E. amylovora; assay: Detection of E. amylovora on plant surfaces (spraying method), immature apples and apple blossoms; design: species or system Erwinia amylovora; details: 100 μM B-1 sprayed twice, 365 nm flashlight
Protocol: To evaluate whether E. amylovora present on actual plant surfaces could be detected using the phosphor compound B-1 synthesized in Example 1, a spraying-based detection was performed by applying B-1 to tissues (organs: fruits and blossoms) of a Fuji apple tree, and the procedure and results are shown in FIG. 7.
Specifically, to simulate plants infected with fire blight in fruit trees, E. amylovora quantified as described in Example 3 at concentrations of 10^2 to 10^8 CFU/mL was applied to immature apples (fruits) and apple blossoms using a brush, as shown in FIG. 7a. To allow E. amylovora to adhere to the plant surface, the samples were air-dried for 10 minutes. For detection, a 100 μM solution of B-1 diluted in […] was sprayed twice, and 10 minutes later, fluorescence changes were observed under a 365 nm flashlight.

[8] = tested on: E. amylovora; assay: Detection of E. amylovora on apple tree tissues (spray and swab methods); design: species or system Erwinia amylovora; details: tissue incubated with E. amylovora 10^8 CFU/mL
Protocol: Detection of E. amylovora on each plant tissue was then attempted by either spraying with a 100 μM solution of B-1 or swabbing with a cotton swab soaked in B-1 solution. Fluorescence changes were observed under a 365 nm flashlight.

[9] = tested on: E. amylovora; assay: Detection of E. amylovora on agricultural tool surfaces (spraying); design: species or system Erwinia amylovora; details: 100 μM B-1 sprayed twice, 365 nm flashlight
Excerpt: To evaluate whether the phosphor compound B-1 synthesized in Example 1 could detect E. amylovora present on objects, a spraying-based detection method was employed. As the test object, farming tools, which are known to be one of the causes of cross-contamination from infected plants in orchards, were used.
Specifically, to simulate farming tools exposed to E. amylovora, pruning shears and a trowel were either used to cut fire blight-infected plants directly or rubbed in soil contaminated with E. amylovora, as shown in FIG. 9a. Detection of E. amylovora was carried out by spraying 100 μM of B-1 solution twice onto the tool surfaces, and fluorescence images were captured under a 365 nm flashlight.

Row | SMILES | maximum absorption ([1]; B-1 10 μM in aqueous solution) | fluorescence in aqueous solution ([1]; B-1 10 μM, aqueous solution, excitation 550 nm) | change of absorption spectrum upon addition of E. amylovora [2] | wavelength of highest fluorescence increase ([2]; excitation 550 nm) | fluorescence change upon addition of E. amylovora ([2]; excitation 550 nm, compared to aqueous condition alone) | fluorescence intensity at 686 nm versus E. amylovora concentration [3] | lowest detectable concentration of E. amylovora [4] | time to rapid fluorescence increase [5] | staining of E. amylovora (confocal fluorescence) [6] | lowest detectable level of E. amylovora on actual plant surfaces ([7]; ImageJ quantification) | red fluorescence on immature apples and apple blossoms ([7]; E. amylovora 10^2 to 10^8 CFU/mL brushed on, 10 minutes) | fluorescence on infected apple twigs, spraying ([8]; 100 μM B-1 sprayed, 365 nm flashlight) | fluorescence of B-1-soaked swab rubbed onto infected apple blossoms and leaves ([8]; cotton swab soaked with B-1, 365 nm flashlight) | fluorescence of contaminated areas of pruning shears and trowel [9]
1 | CN(C)c1ccc2cc3cc(C(=C(C#N)C#N)c4ccccc4)oc3cc2c1 [Compound B-1] | 550 nm | little to no fluorescence | slight overall increase | 686 nm | significant enhancement | increased in proportion to the concentration of E. amylovora | 10^2 CFU/mL | ≤ 10 min | capable of staining live E. amylovora and produces strong red fluorescence | 10^2 CFU/mL | red fluorescence was observed for all concentrations | red fluorescence was observed | red fluorescence was emitted from the swab | emitted red fluorescence
2 | N=C(N)c1ccc(-c2cc3ccc(C(=N)N)cc3[nH]2)cc1 [DAPI, 4′,6-diamidino-2-phenylindole, reference compound] |  |  |  |  |  |  |  |  | fluorescence signals were observed |  |  |  |  | 
